Measurements from ChEMBL document CHEMBL4368896, “Thiosemicarbazones with tyrosinase inhibitory activity” (Medchemcomm, 2019).
“And” between values parts separate entries of the source, which are not always exact repeats. Equal values may be shown once. Blank lines part the entries; values can stand above or below the compound they belong to.

What was measured:
[1] = molecular target: T1, Tyrosinase (Agaricus bisporus, UniProt O42713); assay: Inhibition of mushroom tyrosinase using L-dopa as substrate preincubated for 10 mins followed by substrate addition and measured for 1 min
T1 sequence (O42713 whole entry): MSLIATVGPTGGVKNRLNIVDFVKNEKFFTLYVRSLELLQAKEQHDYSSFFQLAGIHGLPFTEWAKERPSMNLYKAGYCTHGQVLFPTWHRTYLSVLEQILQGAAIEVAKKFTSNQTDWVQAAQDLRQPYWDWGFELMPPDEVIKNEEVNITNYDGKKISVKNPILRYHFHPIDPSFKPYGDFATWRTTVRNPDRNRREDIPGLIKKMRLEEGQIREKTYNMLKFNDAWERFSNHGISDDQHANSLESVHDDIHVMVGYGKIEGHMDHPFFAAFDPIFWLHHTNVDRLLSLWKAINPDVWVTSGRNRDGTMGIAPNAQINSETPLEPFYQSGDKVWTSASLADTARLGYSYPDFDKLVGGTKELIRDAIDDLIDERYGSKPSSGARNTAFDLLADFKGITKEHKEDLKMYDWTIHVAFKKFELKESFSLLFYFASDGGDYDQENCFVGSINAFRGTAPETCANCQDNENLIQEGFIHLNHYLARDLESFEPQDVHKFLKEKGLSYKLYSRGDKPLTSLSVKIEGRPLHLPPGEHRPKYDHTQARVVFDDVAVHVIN

[2] = molecular target: T1, Tyrosinase
Description: (§5) Reversible mixed-type inhibition of mushroom tyrosinase using L-dopa as substrate by Lineweaver-Burk plot analysis

[3] = molecular target: T1, Tyrosinase; remark: listed apart in the source
[4] = molecular target: T2, Tyrosinase (Agaricus bisporus) (UniProt O42713)
T2 sequence (whole entry): T1 sequence (O42713 whole entry)
Description: as §5

[5] = molecular target: T3, Tyrosinase (Mus musculus, UniProt P11344); assay: Inhibition of tyrosinase in mouse B16 cells using L-DOPA as substrate preincubated for 72 hrs followed by substrate addition and measured after 30 mins; assay type: cell-based
T3 sequence (P11344 whole entry): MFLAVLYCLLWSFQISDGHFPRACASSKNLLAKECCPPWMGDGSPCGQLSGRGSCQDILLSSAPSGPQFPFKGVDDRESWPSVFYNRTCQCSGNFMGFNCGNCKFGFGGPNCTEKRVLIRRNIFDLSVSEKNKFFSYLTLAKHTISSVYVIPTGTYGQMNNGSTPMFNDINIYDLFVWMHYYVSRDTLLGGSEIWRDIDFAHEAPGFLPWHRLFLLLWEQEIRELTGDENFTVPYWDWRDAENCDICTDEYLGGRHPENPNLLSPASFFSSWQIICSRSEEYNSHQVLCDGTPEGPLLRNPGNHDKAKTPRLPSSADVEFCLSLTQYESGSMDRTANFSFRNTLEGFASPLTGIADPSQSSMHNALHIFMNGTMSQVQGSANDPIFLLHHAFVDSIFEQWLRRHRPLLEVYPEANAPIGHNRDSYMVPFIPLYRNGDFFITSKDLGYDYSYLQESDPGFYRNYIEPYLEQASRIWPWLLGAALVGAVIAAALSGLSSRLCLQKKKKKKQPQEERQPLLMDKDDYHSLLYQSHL

[6] = molecular target: T1, Tyrosinase; assay: Non-competitive inhibition of mushroom tyrosinase using L-dopa as substrate preincubated for 5 mins followed by substrate addition and measured for 5 mins
[7] = molecular target: T1, Tyrosinase; assay: (§1) Mixed-type inhibition of mushroom tyrosinase using L-dopa as substrate preincubated for 5 mins followed by substrate addition and measured for 3 mins
[8] = molecular target: T2, Tyrosinase (Agaricus bisporus); assay: as §1
[9] = molecular target: T1, Tyrosinase; assay: Inhibition of mushroom tyrosinase using L-dopa as substrate measured for 150 secs by spectrophotometric analysis
[10] = molecular target: T1, Tyrosinase; assay: Inhibition of mushroom tyrosinase using L-dopa as substrate preincubated for 2 mins followed by substrate addition and measured for 5 mins by spectrophotometric analysis
[11] = molecular target: T1, Tyrosinase; assay: Inhibition of mushroom tyrosinase monophenolase activity using L-tyrosine as substrate
[12] = molecular target: T1, Tyrosinase; assay: (§2) Mixed-type inhibition of mushroom tyrosinase using L-tyrosine as substrate by Lineweaver-Burk plot analysis
[13] = molecular target: T2, Tyrosinase (Agaricus bisporus); assay: as §2
[14] = molecular target: T1, Tyrosinase; assay: Non-competitive inhibition of mushroom tyrosinase by Lineweaver-Burk plot analysis
[15] = molecular target: T1, Tyrosinase; assay: (§3) Reversible mixed-type inhibition of mushroom tyrosinase by Lineweaver-Burk plot analysis
[16] = molecular target: T2, Tyrosinase (Agaricus bisporus); assay: as §3
[17] = molecular target: T1, Tyrosinase; assay: (§4) Mixed-type inhibition of mushroom tyrosinase by Lineweaver-Burk plot analysis
[18] = molecular target: T2, Tyrosinase (Agaricus bisporus); assay: as §4
[19] = molecular target: T1, Tyrosinase; assay: Reversible competitive inhibition of mushroom tyrosinase after 10 mins by Lineweaver-Burk plot analysis
[20] = molecular target: T2, Tyrosinase (Agaricus bisporus); assay: Mixed-type inhibition of mushroom tyrosinase after 10 mins by Lineweaver-Burk plot analysis
[21] = molecular target: T1, Tyrosinase; assay: Inhibition of mushroom tyrosinase monophenolase activity using L-tyrosine as substrate after 10 mins by spectrophotometric analysis
[22] = molecular target: T1, Tyrosinase; assay: Reversible inhibition of mushroom tyrosinase after 10 mins by Lineweaver-Burk plot analysis
[23] = molecular target: T1, Tyrosinase; assay: Inhibition of mushroom tyrosinase diphenolase activity using L-dopa as substrate after 10 mins by spectrophotometric analysis
[24] = molecular target: T1, Tyrosinase; assay: Reversible competitive inhibition of mushroom tyrosinase using L-dopa as substrate preincubated for 2 mins followed by substrate addition and measured for 5 mins by Lineweaver-Burk plot analysis

IC50 [1]: 280 nM
Compound: NC(=S)N/N=C/c1ccc(Br)cc1

IC50 [1]: 900 nM
Compound: CC(C)Oc1ccc(/C=N/NC(N)=S)cc1

Ki [2]: 167000 nM
IC50 [3]: 430 nM
Kis [4]: 2.59 µM
Compound: NC(=S)N/N=C/c1cccs1

IC50 [1]: 1310 nM
Compound: CCCCOc1ccc(/C=N/NC(N)=S)cc1

Ki [2]: 600 nM
IC50 [3]: 2350 nM
Kis [4]: 1.18 µM
Compound: NC(=S)N/N=C/c1ccco1

IC50 [1]: 410 nM
Compound: COCCCCOc1ccc(/C=N/NC(N)=S)cc1

IC50 [1]: 380 nM
Compound: NC(=S)N/N=C/c1ccccc1O

IC50 [1]: 370 nM
Compound: NC(=S)N/N=C/c1ccc(OCOCCO)cc1

IC50 [1]: 920 nM
Compound: CCCCOCCOc1ccc(/C=N/NC(N)=S)cc1

IC50 [5]: 10200 nM
Ki [6]: 3700 nM
Ki [7]: 930 nM
Kis [8]: 93 µM
Compound: NC(=S)N/N=C/c1ccccc1 [PHENYLTHIOSEMICARBAZONE]

IC50 [5]: < 1000 nM
Compound: CCC/C(=N\NC(N)=S)c1ccccc1

IC50 [1]: 3900 nM
Compound: NC(=S)N/N=C/c1cccc(O)c1

IC50 [9]: 670 nM
Compound: NC(=S)N/N=C/c1ccc(-c2ccccc2)s1

IC50 [10]: 108000 nM
Compound: CNC(=S)N/N=C(\C)c1ccccc1O

IC50 [11]: 1540 nM
IC50 [3]: 2020 nM
Ki [12]: 1770 nM
Kis [13]: 6.49 µM
Compound: CN(C)c1ccc(/C=N/NC(N)=S)cc1

Ki [14]: 1200 nM
IC50 [11]: 15400 nM
IC50 [3]: 1220 nM
Compound: NC(=S)N/N=C/c1ccccc1Cl

IC50 [3]: 1410 nM
Compound: C/C(=N\NC(N)=S)c1cccs1

IC50 [9]: 340 nM
Compound: CC(=O)OCc1csc(/C=N/NC(N)=S)c1

IC50 [10]: 65000 nM
Compound: CNC(=S)N/N=C(\C)c1ccc(OC)cc1

IC50 [9]: 105 nM
Compound: CCCC(=O)OCc1csc(/C=N/NC(N)=S)c1

Ki [2]: 80 nM
IC50 [3]: 3990 nM
Kis [4]: 0.29 µM
Compound: NC(=S)N/N=C/c1ccc[nH]1

IC50 [1]: > 40000 nM
Compound: NC(=S)N/N=C/c1ccc(O)c(O)c1

IC50 [5]: < 1000 nM
Compound: CCCCCC/C(=N\NC(N)=S)c1ccccc1

IC50 [9]: 110 nM
Compound: CCCCC(=O)OCc1csc(/C=N/NC(N)=S)c1

IC50 [5]: < 1000 nM
Compound: CC(C)C/C(=N\NC(N)=S)c1ccccc1

IC50 [10]: 18000 nM
Compound: CNC(=S)N/N=C(\C)c1ccc(OC)cc1O

IC50 [1]: 1460 nM
Compound: N=C(S)N/N=C/c1ccc(Oc2ccc(F)cc2)cc1

Ki [15]: 4450 nM
Kis [16]: 8.85 µM
Compound: NC(=S)N/N=C/C=C/c1ccccc1

IC50 [1]: 530 nM
Compound: NC(=S)N/N=C/c1ccc(OCCO)cc1

Ki [17]: 1250 nM
Kis [18]: 2.49 µM
IC50 [11]: 6700 nM
IC50 [3]: 1820 nM
Compound: NC(=S)N/N=C/c1ccc(Cl)cc1

IC50 [5]: < 1000 nM
Compound: CCCCC/C(=N\NC(N)=S)c1ccccc1

IC50 [9]: 136 nM
Compound: NC(=S)N/N=C/c1cc(COC(=O)C2CCCCC2)cs1

IC50 [1]: 2210 nM
Compound: CC(C)COc1ccc(/C=N/NC(N)=S)cc1

IC50 [1]: 340 nM
Compound: COCCOCCOc1ccc(/C=N/NC(N)=S)cc1

IC50 [1]: 1290 nM
Compound: C=CCOc1ccc(/C=N/NC(N)=S)cc1

IC50 [3]: 4150 nM
Compound: C/C(=N\NC(N)=S)c1ccc[nH]1

Ki [19]: 380 nM
Kis [20]: 0.83 µM and 1.4 µM
IC50 [5]: 2000 nM
Compound: C/C(=N\N=C(/N)S)c1ccccc1 [PHENYL(METHYL)THIOSEMICARBAZONE]

IC50 [9]: 68 nM
Compound: NC(=S)N/N=C/c1cc(COC(=O)c2ccccc2)cs1

Ki [14]: 770 nM
IC50 [11]: 1780 nM
IC50 [3]: 800 nM
Compound: CN(C)c1ccc(/C=N/NC(=S)Nc2ccccc2)cc1

IC50 [1]: 4880 nM
Compound: COc1ccc(/C=N/NC(N)=S)cc1O

IC50 [9]: 490 nM
Compound: CCOCc1csc(/C=N/NC(N)=S)c1

IC50 [3]: 824 nM
Compound: C/C(=N\NC(N)=S)c1ccco1

IC50 [1]: 940 nM
Compound: NC(=S)N/N=C/c1ccc(OCOC(CO)CO)cc1

IC50 [1]: 180 nM
Compound: NC(=S)N/N=C/c1ccc(O)cc1O

Kis [20]: 6.79 µM
IC50 [21]: 760 nM
Ki [22]: 2820 nM
IC50 [23]: 3800 nM
IC50 [1]: 410 nM
Compound: NC(=S)N/N=C/c1ccc(O)cc1

IC50 [9]: 161 nM
Compound: CCC(=O)OCc1csc(/C=N/NC(N)=S)c1

IC50 [1]: 330 nM
Compound: NC(=S)N/N=C/c1ccc(O)cc1Br

IC50 [1]: 1090 nM
Compound: CCCCCOc1ccc(/C=N/NC(N)=S)cc1

IC50 [5]: < 2300 nM
Compound: CC(C)/C(=N\NC(N)=S)c1ccccc1

Kis [20]: 15.1 µM
IC50 [21]: 7000 nM
IC50 [5]: 139000 nM
Ki [22]: 1470 nM
IC50 [23]: 2620 nM
IC50 [1]: 1480 nM
Compound: COc1ccc(/C=N/NC(N)=S)cc1

IC50 [1]: 750 nM
Compound: COCCOc1ccc(/C=N/NC(N)=S)cc1

IC50 [5]: 1200 nM
Compound: CCCC/C(=N\NC(N)=S)c1ccccc1

IC50 [1]: > 30000 nM
Compound: NC(=S)N/N=C/c1cc(O)cc(O)c1

IC50 [1]: 3030 nM
Compound: CCCOc1ccc(/C=N/NC(N)=S)cc1

IC50 [9]: 196 nM
Compound: NC(=S)N/N=C/c1cc(COC=O)cs1

IC50 [9]: 140 nM
Compound: NC(=S)N/N=C/c1cc(COC(=O)C2CCCC2)cs1

IC50 [9]: 1420 nM
Compound: NC(=S)N/N=C/c1cc(COCCO)cs1

IC50 [5]: < 1000 nM
Compound: CC/C(=N\N=C(\N)S)c1ccccc1

IC50 [10]: 213000 nM
Compound: CNC(=S)N/N=C(\C)c1ccccc1

IC50 [1]: 1920 nM
Compound: CCOc1ccc(/C=N/NC(N)=S)cc1

IC50 [1]: 5680 nM
Compound: COc1cc(/C=N/NC(N)=S)ccc1O

IC50 [1]: 980 nM
Compound: NC(=S)N/N=C/c1ccc(Oc2ccccc2)cc1

IC50 [10]: 6000 nM
Ki [24]: 5000 nM
Compound: CNC(=S)N/N=C(\C)c1ccc(O)cc1O

IC50 [9]: 670 nM
Compound: NC(=S)N/N=C/c1cc(CO)cs1

IC50 [1]: > 50000 nM
Compound: COc1ccc(OC)c(/C=N/NC(N)=S)c1

IC50 [9]: 740 nM
Compound: COCc1csc(/C=N/NC(N)=S)c1

IC50 [5]: < 1000 nM
Compound: CCCCCCCCCCC/C(=N\NC(N)=S)c1ccccc1
